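Briefly, cells in 96-well plates were exposed to five compound concentrations for 48 h, and endpoints were estimated by linear interpolation. GI50 marks 50% less growth. TGI denotes the concentration required for complete inhibition of growth.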
Legend:
Experiment in all cases: NCI-60 cell line screen, 48 h; in the data active means GI50 below about 0.43 µM; inactive means the rest
SF-295 CNS = system: SF-295 CNS
BT-549 breast = system: BT-549 breast
KM12 colon = system: KM12 colon
HOP-62 NSCLC = system: HOP-62 NSCLC
OVCAR-8 ovarian = system: OVCAR-8 ovarian
HS 578T breast = system: HS 578T breast
TK-10 renal = system: TK-10 renal
HOP-92 NSCLC = system: HOP-92 NSCLC
A498 renal = system: A498 renal
MDA-MB-435 = system: MDA-MB-435
SNB-19 CNS = system: SNB-19 CNS
OVCAR-5 ovarian = system: OVCAR-5 ovarian
NCI/ADR-RES ovarian = system: NCI/ADR-RES ovarian
SK-MEL-5 melanoma = system: SK-MEL-5 melanoma
SF-268 CNS = system: SF-268 CNS
CAKI-1 renal = system: CAKI-1 renal
NCI-H460 lung = system: NCI-H460 lung
NCI-H226 lung = system: NCI-H226 lung
HCT-15 colon = system: HCT-15 colon
ACHN renal = system: ACHN renal
M14 melanoma = system: M14 melanoma
EKVX NSCLC = system: EKVX NSCLC
MCF7 breast = system: MCF7 breast
OVCAR-3 ovarian = system: OVCAR-3 ovarian
RPMI-8226 leukemia = system: RPMI-8226 leukemia
COLO 205 colon = system: COLO 205 colon
UACC-62 melanoma = system: UACC-62 melanoma
UACC-257 melanoma = system: UACC-257 melanoma
SK-MEL-28 melanoma = system: SK-MEL-28 melanoma
OVCAR-4 ovarian = system: OVCAR-4 ovarian
HL-60(TB) leukemia = system: HL-60(TB) leukemia
SN12C renal = system: SN12C renal
K-562 leukemia = system: K-562 leukemia
A549 NSCLC = system: A549 NSCLC
SNB-75 CNS = system: SNB-75 CNS
CCRF-CEM leukemia = system: CCRF-CEM leukemia
MOLT-4 leukemia = system: MOLT-4 leukemia
SK-MEL-2 melanoma = system: SK-MEL-2 melanoma
DU-145 prostate = system: DU-145 prostate
IGROV1 ovarian = system: IGROV1 ovarian
RXF 393 renal = system: RXF 393 renal
NCI-H522 lung = system: NCI-H522 lung
T-47D breast = system: T-47D breast
UO-31 renal = system: UO-31 renal
LOX IMVI melanoma = system: LOX IMVI melanoma
MDA-MB-231 breast = system: MDA-MB-231 breast
U251 CNS = system: U251 CNS
SK-OV-3 ovarian = system: SK-OV-3 ovarian
HCT-116 colon = system: HCT-116 colon
PC-3 prostate = system: PC-3 prostate
786-0 renal = system: 786-0 renal
SF-539 CNS = system: SF-539 CNS
SW-620 colon = system: SW-620 colon
HT29 colon = system: HT29 colon
HCC-2998 colon = system: HCC-2998 colon
NCI-H23 lung = system: NCI-H23 lung
MALME-3M melanoma = system: MALME-3M melanoma

COc1ccc(C2SCC(=O)N2NC(=O)Nc2c(C)nc3ccccn23)cc1 (stereo not given)
> 100 µM: TGI (KM12 colon) | TGI (OVCAR-8 ovarian) | TGI (HS 578T breast) | TGI (MDA-MB-435) | TGI (OVCAR-5 ovarian) | TGI (NCI/ADR-RES ovarian) | TGI (SK-MEL-5 melanoma) | TGI (SF-268 CNS) | TGI (CAKI-1 renal) | TGI (NCI-H460 lung) | TGI (NCI-H226 lung) | TGI (HCT-15 colon) | TGI (M14 melanoma) | TGI (EKVX NSCLC) | TGI (MCF7 breast) | TGI (OVCAR-3 ovarian) | TGI (RPMI-8226 leukemia) | TGI (COLO 205 colon) | TGI (UACC-62 melanoma) | TGI (UACC-257 melanoma) | TGI (SK-MEL-28 melanoma) | TGI (OVCAR-4 ovarian) | TGI (HL-60(TB) leukemia) | TGI (SN12C renal) | TGI (K-562 leukemia) | TGI (A549 NSCLC) | TGI (CCRF-CEM leukemia) | TGI (MOLT-4 leukemia) | TGI (SK-MEL-2 melanoma) | TGI (DU-145 prostate) | TGI (IGROV1 ovarian) | TGI (UO-31 renal) | TGI (LOX IMVI melanoma) | TGI (PC-3 prostate) | TGI (SF-539 CNS) | TGI (SW-620 colon) | TGI (HT29 colon) | TGI (HCC-2998 colon)
34.7 µM: TGI (MDA-MB-231 breast)
74.9 µM: TGI (T-47D breast)
60.3 µM: TGI (A498 renal)
95.4 µM: TGI (NCI-H522 lung)
47.3 µM: TGI (SNB-19 CNS) | TGI (ACHN renal)
37.5 µM: TGI (HOP-92 NSCLC)
69.3 µM: TGI (RXF 393 renal)
42.8 µM: TGI (HCT-116 colon)
27.9 µM: TGI (U251 CNS)
61.6 µM: TGI (786-0 renal)
49 µM: TGI (TK-10 renal)
31.1 µM: TGI (HOP-62 NSCLC)
57.3 µM: TGI (SF-295 CNS)
19.9 µM: TGI (SNB-75 CNS)
47.6 µM: TGI (SK-OV-3 ovarian)
inactive: GI50 (SF-295 CNS) 24.5 µM | GI50 (BT-549 breast) 24.2 µM | GI50 (KM12 colon) > 100 µM | GI50 (HOP-62 NSCLC) 16.4 µM | GI50 (OVCAR-8 ovarian) 40.2 µM | GI50 (HS 578T breast) 41.3 µM | GI50 (TK-10 renal) 22.6 µM | GI50 (HOP-92 NSCLC) 16.6 µM | GI50 (A498 renal) 27.8 µM | GI50 (MDA-MB-435) > 100 µM | GI50 (SNB-19 CNS) 21.7 µM | GI50 (OVCAR-5 ovarian) 28.9 µM | GI50 (NCI/ADR-RES ovarian) 40.2 µM | GI50 (SK-MEL-5 melanoma) > 100 µM | GI50 (SF-268 CNS) 39.7 µM | GI50 (CAKI-1 renal) > 100 µM | GI50 (NCI-H460 lung) 90.5 µM | GI50 (NCI-H226 lung) 42.8 µM | GI50 (HCT-15 colon) > 100 µM | GI50 (ACHN renal) 21.9 µM | GI50 (M14 melanoma) > 100 µM | GI50 (EKVX NSCLC) 63 µM | GI50 (MCF7 breast) 75.7 µM | GI50 (OVCAR-3 ovarian) > 100 µM | GI50 (RPMI-8226 leukemia) > 100 µM | GI50 (COLO 205 colon) > 100 µM | GI50 (UACC-62 melanoma) 39.6 µM | GI50 (UACC-257 melanoma) > 100 µM | GI50 (SK-MEL-28 melanoma) > 100 µM | GI50 (OVCAR-4 ovarian) > 100 µM | GI50 (HL-60(TB) leukemia) > 100 µM | GI50 (SN12C renal) 54.4 µM | GI50 (K-562 leukemia) > 100 µM | GI50 (A549 NSCLC) > 100 µM | GI50 (SNB-75 CNS) 4.76 µM | GI50 (CCRF-CEM leukemia) > 100 µM | GI50 (MOLT-4 leukemia) > 100 µM | GI50 (SK-MEL-2 melanoma) 41.8 µM | GI50 (DU-145 prostate) 44.9 µM | GI50 (IGROV1 ovarian) 38.6 µM | GI50 (RXF 393 renal) 26.4 µM | GI50 (NCI-H522 lung) 32.8 µM | GI50 (T-47D breast) 26.4 µM | GI50 (UO-31 renal) 32.7 µM | GI50 (LOX IMVI melanoma) 27.1 µM | GI50 (MDA-MB-231 breast) 15.8 µM | GI50 (U251 CNS) 13.8 µM | GI50 (SK-OV-3 ovarian) 24.5 µM | GI50 (HCT-116 colon) 17.1 µM | GI50 (PC-3 prostate) 77.2 µM | GI50 (786-0 renal) 21.8 µM | GI50 (SF-539 CNS) 34.1 µM | GI50 (SW-620 colon) > 100 µM | GI50 (HT29 colon) > 100 µM | GI50 (HCC-2998 colon) > 100 µM
65 µM: TGI (BT-549 breast)

O=C(O)[C@@H]1CCCCN1Cc1cc2cc3c(cc2c2cc(OCc4ccccc4)ccc12)OCO3
37.4 µM: TGI (SK-MEL-2 melanoma)
5.7 µM: TGI (NCI-H226 lung)
inactive: GI50 (SF-295 CNS) 1.95 µM | GI50 (BT-549 breast) 2.97 µM | GI50 (KM12 colon) 4.24 µM | GI50 (HOP-62 NSCLC) 16.1 µM | GI50 (OVCAR-8 ovarian) 6.62 µM | GI50 (HS 578T breast) 2.29 µM | GI50 (TK-10 renal) 3.36 µM | GI50 (HOP-92 NSCLC) 14.7 µM | GI50 (MDA-MB-435) 3.4 µM | GI50 (SNB-19 CNS) 2.31 µM | GI50 (OVCAR-5 ovarian) 19.2 µM | GI50 (NCI/ADR-RES ovarian) 19.3 µM | GI50 (SK-MEL-5 melanoma) 1.62 µM | GI50 (SF-268 CNS) 2.98 µM | GI50 (CAKI-1 renal) 3.6 µM | GI50 (NCI-H460 lung) 1.49 µM | GI50 (NCI-H226 lung) 2.09 µM | GI50 (HCT-15 colon) 3.27 µM | GI50 (ACHN renal) 2.73 µM | GI50 (M14 melanoma) 16.5 µM | GI50 (NCI-H23 lung) 21.6 µM | GI50 (EKVX NSCLC) 4.42 µM | GI50 (MCF7 breast) 2.05 µM | GI50 (OVCAR-3 ovarian) 6.79 µM | GI50 (RPMI-8226 leukemia) 24 µM | GI50 (COLO 205 colon) 3.05 µM | GI50 (UACC-62 melanoma) 1.49 µM | GI50 (UACC-257 melanoma) 3.4 µM | GI50 (MALME-3M melanoma) 2.8 µM | GI50 (SK-MEL-28 melanoma) 2.21 µM | GI50 (HL-60(TB) leukemia) > 100 µM | GI50 (SN12C renal) 2 µM | GI50 (K-562 leukemia) 36.7 µM | GI50 (A549 NSCLC) 3.74 µM | GI50 (SNB-75 CNS) 2.96 µM | GI50 (CCRF-CEM leukemia) 14.9 µM | GI50 (MOLT-4 leukemia) 63.3 µM | GI50 (SK-MEL-2 melanoma) 15.6 µM | GI50 (DU-145 prostate) 5.19 µM | GI50 (IGROV1 ovarian) 6.53 µM | GI50 (RXF 393 renal) 6.05 µM | GI50 (NCI-H522 lung) 4.89 µM | GI50 (T-47D breast) 2.97 µM | GI50 (UO-31 renal) 4.77 µM | GI50 (LOX IMVI melanoma) 1.75 µM | GI50 (MDA-MB-231 breast) 1.9 µM | GI50 (U251 CNS) 3.8 µM | GI50 (SK-OV-3 ovarian) 6.47 µM | GI50 (HCT-116 colon) 17.4 µM | GI50 (PC-3 prostate) 16.4 µM | GI50 (786-0 renal) 18.9 µM | GI50 (SF-539 CNS) 3.87 µM | GI50 (SW-620 colon) 1.84 µM | GI50 (HT29 colon) 3.24 µM | GI50 (HCC-2998 colon) 19.3 µM
15.8 µM: TGI (COLO 205 colon) | TGI (HT29 colon)
18.4 µM: TGI (NCI-H522 lung)
12 µM: TGI (UACC-257 melanoma)
9.41 µM: TGI (MALME-3M melanoma)
25.3 µM: TGI (EKVX NSCLC)
29.5 µM: TGI (T-47D breast)
21.4 µM: TGI (IGROV1 ovarian)
29 µM: TGI (OVCAR-8 ovarian)
77.4 µM: TGI (RPMI-8226 leukemia)
22.6 µM: TGI (RXF 393 renal)
6.21 µM: TGI (MDA-MB-231 breast)
34.3 µM: TGI (SK-OV-3 ovarian)
15.2 µM: TGI (U251 CNS)
3.61 µM: TGI (SK-MEL-5 melanoma)
16.6 µM: TGI (SF-539 CNS)
8.91 µM: TGI (SNB-75 CNS)
25.5 µM: TGI (KM12 colon)
> 100 µM: TGI (TK-10 renal) | TGI (HL-60(TB) leukemia) | TGI (K-562 leukemia) | TGI (CCRF-CEM leukemia) | TGI (MOLT-4 leukemia) | TGI (DU-145 prostate)
21.2 µM: TGI (SF-268 CNS)
33.7 µM: TGI (CAKI-1 renal)
31.6 µM: TGI (HOP-62 NSCLC)
13.7 µM: TGI (HCT-15 colon)
15.1 µM: TGI (A549 NSCLC)
45.7 µM: TGI (NCI-H23 lung)
16.5 µM: TGI (MCF7 breast)
3.56 µM: TGI (LOX IMVI melanoma)
17.5 µM: TGI (MDA-MB-435)
8.3 µM: TGI (SF-295 CNS)
8.88 µM: TGI (BT-549 breast)
39.6 µM: TGI (NCI/ADR-RES ovarian)
36.2 µM: TGI (OVCAR-3 ovarian)
31.1 µM: TGI (HCT-116 colon)
13.8 µM: TGI (SW-620 colon)
6.94 µM: TGI (HS 578T breast)
7.28 µM: TGI (SK-MEL-28 melanoma)
38.3 µM: TGI (PC-3 prostate)
3.08 µM: TGI (UACC-62 melanoma)
7.8 µM: TGI (SN12C renal)
3.39 µM: TGI (NCI-H460 lung)
44.9 µM: TGI (786-0 renal)
8.86 µM: TGI (SNB-19 CNS)
44 µM: TGI (OVCAR-5 ovarian)
30.4 µM: TGI (M14 melanoma)
33.6 µM: TGI (HCC-2998 colon)
41.5 µM: TGI (HOP-92 NSCLC)
10.3 µM: TGI (ACHN renal)
17.4 µM: TGI (UO-31 renal)
